Measured values from PubChem BioAssay (NCI).
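The compound was tested at five concentrations on cells cultured in 96-well plates, with a 48-hour exposure period. Here, GI50 denotes the concentration required for 50% inhibition of growth. Definition used: TGI = concentration required for complete inhibition of growth.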

How the values were obtained:
Assay in all cases: inhibition of tumour cell growth, NCI panel, 48 h
[1] = system: HCT-116 colon
[2] = system: NCI-H460 lung
[3] = system: SF-295 CNS
[4] = system: SF-539 CNS
[5] = system: TK-10 renal
[6] = system: U251 CNS
[7] = system: UACC-257 melanoma
[8] = system: UACC-62 melanoma
[9] = system: DU-145 prostate
[10] = system: BT-549 breast

COc1cc2c(c(OC)c1OC)-c1[nH]ncc1CC2
TGI [1]: > 100 µM | TGI [2]: > 100 µM | TGI [3]: > 100 µM | TGI [4]: > 100 µM | TGI [5]: > 100 µM | TGI [6]: > 100 µM | TGI [7]: > 100 µM | TGI [8]: > 100 µM

O=c1ccccc2cccc(O)c12
TGI [1]: > 100 µM | TGI [2]: > 100 µM | TGI [3]: > 100 µM | TGI [4]: > 100 µM | TGI [5]: > 100 µM | TGI [6]: > 100 µM | TGI [7]: > 100 µM | TGI [8]: > 100 µM

O=C1CCCC/C1=C/C=C/c1ccccc1
TGI [9]: > 100 µM | TGI [1]: > 100 µM | TGI [2]: > 100 µM | TGI [3]: > 100 µM | TGI [4]: > 100 µM | TGI [5]: > 100 µM | TGI [6]: > 100 µM | TGI [7]: > 100 µM | TGI [8]: > 100 µM

CCOC(=O)/N=C(\N)SCc1ccccc1
TGI [1]: > 100 µM | TGI [2]: > 100 µM | TGI [3]: > 100 µM | TGI [4]: > 100 µM | TGI [5]: > 100 µM | TGI [6]: > 100 µM | TGI [7]: > 100 µM | TGI [8]: > 100 µM

COc1ccc2c(c1)c(C1(c3cn(C)c4ccc(OC)cc34)C(=O)Nc3ccc(F)cc31)cn2C
GI50 [10]: 10.6 µM | TGI [10]: 50.8 µM | GI50 [9]: 11.5 µM | TGI [9]: > 100 µM | GI50 [1]: 3.84 µM | TGI [1]: 15.3 µM | GI50 [2]: 3.65 µM | TGI [2]: 14.6 µM | GI50 [3]: 2.95 µM | TGI [3]: 18.3 µM | GI50 [4]: 15.6 µM | TGI [4]: 85.2 µM | GI50 [6]: 4.24 µM | TGI [6]: > 100 µM | GI50 [7]: 5.28 µM | TGI [7]: > 100 µM | GI50 [8]: 7.42 µM | TGI [8]: 56.2 µM

Nc1ccc(Nc2nc(F)nc(-c3c4ccccc4c4n3CCS4)n2)cc1
TGI [1]: 28 µM | TGI [3]: 33.7 µM | TGI [4]: 27.6 µM | TGI [5]: 34.2 µM | TGI [6]: 31 µM

Cc1c(C(=O)/C=C/c2ccc(Cl)cc2)[n+](=O)c2ccccc2n1[O-]
TGI [1]: 18.5 µM | TGI [2]: 29.1 µM | TGI [3]: 27.1 µM | TGI [4]: 25.7 µM | TGI [5]: 35.5 µM | TGI [6]: 26.3 µM | TGI [7]: 30.4 µM | TGI [8]: 26.8 µM

O=C(COc1cccc(/C=C2\COc3ccccc3C2=O)c1)Nc1nccs1
GI50 [9]: 1.96 µM | TGI [9]: 3.37 µM | GI50 [1]: 1.76 µM | TGI [1]: 3.15 µM | GI50 [2]: 6.92 µM | TGI [2]: 31.6 µM | GI50 [3]: 1.73 µM | TGI [3]: 3.26 µM | GI50 [4]: 14.7 µM | TGI [4]: 31.2 µM | GI50 [5]: 3.05 µM | TGI [5]: 5.52 µM | GI50 [6]: 1.73 µM | TGI [6]: 3.11 µM | GI50 [7]: 2.06 µM | TGI [7]: 5.28 µM | GI50 [8]: 1.69 µM | TGI [8]: 3.76 µM

O=C1/C(=C/c2ccccc2Cl)N=C(c2ccccc2)N1Cc1ccco1
GI50 [10]: 39.8 µM | TGI [10]: > 100 µM | GI50 [9]: 69.2 µM | TGI [9]: > 100 µM | GI50 [1]: 18.5 µM | TGI [1]: > 100 µM | GI50 [2]: 42.6 µM | TGI [2]: > 100 µM | GI50 [4]: 63.8 µM | TGI [4]: > 100 µM | GI50 [5]: > 100 µM | TGI [5]: > 100 µM | GI50 [6]: 57.8 µM | TGI [6]: > 100 µM | GI50 [7]: 21.2 µM | TGI [7]: 39.8 µM | GI50 [8]: 12.6 µM | TGI [8]: 34.7 µM

COc1cccc(/C=N\Nc2ccc([N+](=O)[O-])cn2)c1O
GI50 [10]: 4.47 µM | TGI [10]: 30 µM | GI50 [9]: 4.34 µM | TGI [9]: 62.6 µM | GI50 [1]: 3.04 µM | TGI [1]: 15.2 µM | GI50 [2]: 2.05 µM | TGI [2]: 11 µM | GI50 [4]: 2.93 µM | TGI [4]: 8.65 µM | GI50 [5]: 7.31 µM | TGI [5]: > 100 µM | GI50 [6]: 1.93 µM | TGI [6]: 19.8 µM | GI50 [7]: 3.19 µM | TGI [7]: 20.6 µM | GI50 [8]: 2.47 µM | TGI [8]: 8.9 µM

Cn1c(CCC#N)nc2ccc(Br)cc2c1=O
TGI [2]: > 100 µM | TGI [3]: > 100 µM | TGI [4]: > 100 µM | TGI [5]: > 100 µM | TGI [6]: > 100 µM | TGI [7]: > 100 µM | TGI [8]: > 100 µM

COc1ccc2c(c1)CC[C@@H]1[C@@H]2CC[C@@]2(C)[C@H]1CC1(CCCCC1)[C@@H]2O
GI50 [9]: 15.2 µM | TGI [9]: 29.3 µM | GI50 [1]: 12.3 µM | TGI [1]: 26.4 µM | GI50 [2]: 3.82 µM | TGI [2]: 15.4 µM | GI50 [3]: 9.05 µM | TGI [3]: 23.1 µM | GI50 [4]: 4.22 µM | TGI [4]: 16.6 µM | GI50 [5]: 12.2 µM | TGI [5]: 31.8 µM | GI50 [6]: 10 µM | TGI [6]: 24.4 µM | GI50 [7]: 23.6 µM | TGI [7]: 47.2 µM | GI50 [8]: 16.4 µM | TGI [8]: 31.6 µM

O=C(OCCOCBr)c1ccccc1
TGI [1]: > 100 µM | TGI [2]: > 100 µM | TGI [3]: > 100 µM | TGI [4]: > 100 µM | TGI [5]: > 100 µM | TGI [6]: > 100 µM | TGI [7]: > 100 µM | TGI [8]: > 100 µM

CCCCC(=O)N/N=C/c1cc(I)cc(I)c1O
GI50 [10]: 4.48 µM | TGI [10]: 29.5 µM | GI50 [9]: 4.24 µM | TGI [9]: 31 µM | GI50 [1]: 3.63 µM | TGI [1]: 21.9 µM | GI50 [2]: 2.25 µM | TGI [2]: 15.5 µM | GI50 [3]: 2.45 µM | TGI [3]: 12.9 µM | GI50 [4]: 2.99 µM | TGI [4]: 12.8 µM | GI50 [6]: 1.99 µM | TGI [6]: 16.1 µM | GI50 [7]: 2.56 µM | TGI [7]: 10.4 µM | GI50 [8]: 2.24 µM | TGI [8]: 8.33 µM

COc1ccc(C(c2ccc(C(C)C)cc(=O)c2O)c2c(O)cc3oc(-c4ccccc4)cc(=O)c3c2O)cc1 (stereo not given)
TGI [2]: 15.8 µM | TGI [3]: 16.7 µM | TGI [4]: 21.5 µM | TGI [5]: 90.3 µM | TGI [6]: 22.3 µM | TGI [7]: 72.4 µM | TGI [8]: 42.9 µM

O=C(O)/C(=C/c1ccccc1[N+](=O)[O-])c1ccccc1
TGI [1]: > 100 µM | TGI [2]: > 100 µM | TGI [3]: > 100 µM | TGI [4]: > 100 µM | TGI [5]: > 100 µM | TGI [6]: > 100 µM | TGI [7]: > 100 µM | TGI [8]: > 100 µM

C=CC1CC12C(=O)C1OC2(C)C2C(=O)c3c(ccc4c3ccc3ccccc34)C(=O)C12 (stereo not given)
GI50 [10]: 58.9 µM | TGI [10]: > 100 µM | GI50 [1]: 52.6 µM | TGI [1]: > 100 µM | GI50 [2]: 37.1 µM | TGI [2]: > 100 µM | GI50 [4]: 47.2 µM | TGI [4]: > 100 µM | GI50 [5]: 52.9 µM | TGI [5]: > 100 µM | GI50 [6]: 26.7 µM | TGI [6]: 87.6 µM | GI50 [7]: 89.4 µM | TGI [7]: > 100 µM

ClCCN(CCCl)c1ccc(-n2cnc3c(Cl)ncnc32)cc1
GI50 [10]: 3.51 µM | TGI [10]: 12.9 µM | GI50 [9]: 1.88 µM | TGI [9]: 3.59 µM | GI50 [1]: 1.82 µM | TGI [1]: 3.33 µM | GI50 [2]: 2.14 µM | TGI [2]: 4.88 µM | GI50 [4]: 5.23 µM | TGI [4]: 19 µM | GI50 [5]: 13 µM | TGI [5]: 81.9 µM | GI50 [6]: 2.91 µM | TGI [6]: 9.1 µM | GI50 [7]: 2.24 µM | TGI [7]: 5.16 µM | GI50 [8]: 1.81 µM | TGI [8]: 3.35 µM

COC(=O)c1ccccc1NC(=O)/C(=N\NC(C)(C)C)C(C#N)c1nc(-c2ccc([N+](=O)[O-])cc2)cs1 (stereo not given)
TGI [10]: > 100 µM | TGI [9]: > 100 µM | TGI [1]: > 100 µM | TGI [2]: > 100 µM | TGI [3]: > 100 µM | TGI [4]: > 100 µM | TGI [6]: > 100 µM | TGI [7]: > 100 µM | TGI [8]: > 100 µM
